Laboratory results taken from US20230365537A1, “POLO LIKE KINASE 4 INHIBITORS” (ORIC Pharmaceuticals, Inc., priority 2021, published 2023).

Key:
human recombinant PLK4 = human recombinant PLK4 (Homo sapiens (Human), UniProt O00444); assay: PLK4 Biochemical Assay (ADP-Glo); settings: 0.5 nM PLK4, 8.0 µM ATP, 4.7 µM MBP, 6 hours at RT
Protocol: (§1) Activity of human recombinant PLK4 (ThermoFisher, cat #PV6396) was measured by quantification of adenosine diphosphate (ADP) using the ADP-Glo Kinase Assay Kit (Promega, cat #V9102). […] 5 µL of 1.0 nM PLK4 protein in assay buffer (50 mM HEPES, pH 7.5, 0.01% Brij-35, 0.01% BSA, 10 mM MgCl2, 1 mM EGTA, 1 mM DTT) was added to the plates. Test compounds and PLK4 were incubated for 15 minutes at room temperature (RT). […] Reactions were stopped and the remaining ATP depleted by adding 10 µL of ADP-Glo reagent (Promega, cat#V912B) and incubating for 40 minutes at RT. The simultaneous conversion of the remaining ADP to ATP and measurement of the newly synthesized ATP was achieved by addition of 20 µL Kinase Detection reagent (Promega, cat #V914B), incubation for 30 min at RT, and luminescence detection using the EnVision plate reader (PerkinElmer). […] The IC50 values reported in Table 2 were determined using four parameter non-linear regression curve fit.

[1] = molecular target: human recombinant Aurora A (Homo sapiens (Human), UniProt O14965); assay: Aurora A Kinase Biochemical Assay (ADP-Glo); settings: ratio of Aurora A IC50 to PLK4 IC50 (selectivity)
human recombinant Aurora A, sequence (O14965 whole entry): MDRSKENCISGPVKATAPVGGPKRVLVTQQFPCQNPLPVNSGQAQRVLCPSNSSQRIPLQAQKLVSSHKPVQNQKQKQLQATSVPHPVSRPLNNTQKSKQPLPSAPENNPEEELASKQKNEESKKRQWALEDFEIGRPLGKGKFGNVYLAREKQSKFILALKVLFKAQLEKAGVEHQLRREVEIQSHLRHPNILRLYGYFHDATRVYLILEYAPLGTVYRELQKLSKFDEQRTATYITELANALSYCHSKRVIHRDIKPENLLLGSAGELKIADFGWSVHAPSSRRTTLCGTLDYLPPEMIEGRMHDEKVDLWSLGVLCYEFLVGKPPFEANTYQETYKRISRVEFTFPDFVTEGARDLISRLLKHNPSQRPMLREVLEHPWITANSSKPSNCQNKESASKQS
Protocol: as §1, with “Aurora A” for “PLK4”, “#PR5935A)” for “#PV6396)”, “5.0” for “1.0”, “Aurora A” for “PLK4 protein”, “10uL” for “10 µL”

[2] = molecular target: human recombinant Aurora B (Homo sapiens (Human), UniProt Q96GD4); assay: Aurora B Kinase Biochemical Assay (ADP-Glo); settings: ratio of Aurora B IC50 to PLK4 IC50 (selectivity)
human recombinant Aurora B, sequence (Q96GD4 whole entry): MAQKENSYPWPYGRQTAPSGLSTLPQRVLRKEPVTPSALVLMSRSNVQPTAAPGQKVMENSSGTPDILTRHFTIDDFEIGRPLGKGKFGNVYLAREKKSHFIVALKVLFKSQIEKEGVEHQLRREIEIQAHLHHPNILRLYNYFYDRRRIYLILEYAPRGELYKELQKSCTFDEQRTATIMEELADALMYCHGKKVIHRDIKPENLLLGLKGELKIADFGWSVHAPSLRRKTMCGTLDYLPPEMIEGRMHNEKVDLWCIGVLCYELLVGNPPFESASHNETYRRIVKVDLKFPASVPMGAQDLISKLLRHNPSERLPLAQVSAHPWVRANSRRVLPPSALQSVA
Protocol: as §1, with “Aurora B” for “PLK4”, “#PR9210B)” for “#PV6396)”, “20” for “1.0”, “Aurora B” for “PLK4 protein”, “10uL” for “10 µL”

human recombinant PLK4, sequence (O00444 whole entry): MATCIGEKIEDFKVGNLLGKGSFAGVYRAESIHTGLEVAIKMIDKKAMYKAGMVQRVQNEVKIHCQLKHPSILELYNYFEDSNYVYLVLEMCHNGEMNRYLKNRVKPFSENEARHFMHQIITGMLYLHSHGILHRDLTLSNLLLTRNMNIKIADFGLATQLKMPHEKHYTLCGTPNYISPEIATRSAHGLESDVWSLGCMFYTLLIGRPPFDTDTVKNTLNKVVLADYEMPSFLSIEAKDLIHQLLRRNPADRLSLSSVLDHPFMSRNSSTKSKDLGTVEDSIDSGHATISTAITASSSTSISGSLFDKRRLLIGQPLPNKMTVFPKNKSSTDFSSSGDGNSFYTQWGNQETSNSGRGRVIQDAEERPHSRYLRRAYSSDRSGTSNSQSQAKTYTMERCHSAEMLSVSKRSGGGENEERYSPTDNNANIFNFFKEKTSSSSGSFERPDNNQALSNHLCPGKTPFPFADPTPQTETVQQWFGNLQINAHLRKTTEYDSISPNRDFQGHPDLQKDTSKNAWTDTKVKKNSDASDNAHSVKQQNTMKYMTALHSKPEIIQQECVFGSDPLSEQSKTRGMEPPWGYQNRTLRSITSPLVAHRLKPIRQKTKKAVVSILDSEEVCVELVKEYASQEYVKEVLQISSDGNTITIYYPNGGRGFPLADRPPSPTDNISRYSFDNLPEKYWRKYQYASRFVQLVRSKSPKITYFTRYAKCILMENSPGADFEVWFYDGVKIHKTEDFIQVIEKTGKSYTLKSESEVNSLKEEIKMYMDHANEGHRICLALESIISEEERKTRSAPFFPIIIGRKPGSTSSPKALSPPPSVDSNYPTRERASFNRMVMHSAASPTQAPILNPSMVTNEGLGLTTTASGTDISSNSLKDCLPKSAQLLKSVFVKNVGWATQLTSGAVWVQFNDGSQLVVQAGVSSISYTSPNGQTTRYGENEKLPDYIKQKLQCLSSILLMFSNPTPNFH

| SMILES | IC50 (human recombinant PLK4) [nM] | [Aurora A IC50 (nM)]/[PLK4 IC50 (nM)] [1] | [Aurora B IC50 (nM)]/[PLK4 IC50 (nM)] [2] |
| --- | --- | --- | --- |
| COc1ccc2c(c1)[C@]1(C[C@H]1c1ccc3c(Nc4ncnc(N5CCCOCC5)c4OC)n[nH]c3c1)C(=O)N2 [Example 44, (1R,2S)-5′-methoxy-2-(3-{[5-methoxy-6-(1,4-oxazepan-4-yl)pyrimidin-4-yl]amino}-1H-indazol-6-yl)spiro[cyclopropane-1,3′-indol]-2′(1′H)-one] | 20.7 | 1269.119 | 45.11 |
| COc1ccc2c(c1)[C@]1(C[C@H]1c1ccc3c(Nc4cc(N5CCC5)ncn4)n[nH]c3c1)C(=O)N2 [Example 45, (1R,2S)-2-(3-{[6-(azetidin-1-yl)pyrimidin-4-yl]amino}-1H-indazol-6-yl)-5′-methoxyspiro[cyclopropane-1,3′-indol]-2′(1′H)-one] | 15.5 | 137.8309 | 4.603 |
| COc1ccc2c(c1)[C@]1(C[C@H]1c1ccc3c(Nc4nc(Cl)c(OC)c(N5CCOCC5)n4)n[nH]c3c1)C(=O)N2 [Example 49, (1R,2S)-2-(3-{[4-chloro-5-methoxy-6-(morpholin-4-yl)pyrimidin-2-yl]amino}-1H-indazol-6-yl)-5′-metboxyspiro[cydopropane-1,3′-indol]-2′(1′H)-one] | 19.1 | 253.4031 | 53.19 |
| COc1ccc2c(c1)[C@]1(C[C@H]1c1ccc3c(Nc4cn(CCO)nc4OC)n[nH]c3c1)C(=O)N2 [Example 50, (1R,2S)-2-(3-{[1-(2-hydroxyethyl)-3-methoxy-1H-pyrazol-4-yl]amino}-1H-indazol-6-yl)-S′-methoxyspiro[cyclopropane-1,3′-indol]-2′(1′H)-one] | 61.7 | 361.809 | 27.4923 |

The remaining lines, values ahead:

| IC50 (human recombinant PLK4) [nM] | [Aurora A IC50 (nM)]/[PLK4 IC50 (nM)] [1] | [Aurora B IC50 (nM)]/[PLK4 IC50 (nM)] [2] | SMILES |
| --- | --- | --- | --- |
| 1.25 | 4028.777 | 251.7986 | COc1ccc2c(c1)[C@]1(C[C@H]1c1ccc3c(Nc4ncnc(N5CCS(=O)(=O)CC5)c4Cl)n[nH]c3c1)C(=O)N2 [Example 53] |
| 1.25 | 3251.804 | 17.9 | COc1ccc2c(c1)[C@]1(C[C@H]1c1ccc3c(Nc4ncc(CCO)nc4OC)n[nH]c3c1)C(=O)N2 [Example 55, (lR,2S)-2-(3-{[5-(2-hydroxyethyl)-3-methoxypyrazin-2-yl]amino}-1H-indazol-6-yl)-5′-methozyspiro[cyclopropano-1,3′-indol]-2′(1′H)-one] |
| 8.44 | 108.4696 | 39.23 | COc1ccc2c(c1)[C@]1(C[C@H]1c1ccc3c(Nc4cc(N5CCS(=O)(=O)CC5)nc(C5CC5)n4)n[nH]c3c1)C(=O)N2 [Example 59, (1R,2S)-2-(3-((2-cyclopropyl-6-(1,1-dioxidothiomorpholino)pyrimidin-4-yl)amino)-1H-indazol-6-yl)-5′-methoxyspiro[cyclopropane-1,3′-indolin]-2′-one] |
| 7.36 | 69.69 | 7.855 | COc1ccc2c(c1)[C@]1(C[C@H]1c1ccc3c(Nc4cc(N5CCS(=O)(=O)CC5)nc(C)n4)n[nH]c3c1)C(=O)N2 [Example 60, (1R,2S)-2-(3-((6-(1,1-dioxidothiomorpholino)-2-methylpyrimidin-4-yl)amino)-1H-indazol-6-yl)-5′-methoxyspiro[cyclopropane-1,3′-indolin]-2′-one] |
